Measurements published in ChEMBL document CHEMBL1201862, “PubChem BioAssay data set” (2004).
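Cells were grown in 96-well plates and exposed to each compound for 48 hours at five concentrations; endpoints were interpolated linearly between bracketing concentrations, or set to the highest concentration if not reached. GI50 is the concentration that inhibits growth by half.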 The source made the active and inactive calls. No stated cut-off is given here; in the data, active = GI50 up to about 1.1 µM and inactive = higher.

What was measured:
Test in all cases: NCI tumour cell line growth inhibition, 48 h
RXF 393 = tested on: RXF 393
NCI-H23 = tested on: NCI-H23
NCI-H460 = tested on: NCI-H460
HT-29 = tested on: HT-29
OVCAR-4 = tested on: OVCAR-4
DMS-273 = tested on: DMS-273
ACHN = tested on: ACHN
M14 = tested on: M14
SK-MEL-28 = tested on: SK-MEL-28
OVCAR-8 = tested on: OVCAR-8
SNB-75 = tested on: SNB-75
SF-539 = tested on: SF-539
SF-295 = tested on: SF-295
DMS-114 = tested on: DMS-114
HOP-92 = tested on: HOP-92
CCRF-CEM = tested on: CCRF-CEM
SK-MEL-5 = tested on: SK-MEL-5
UACC-62 = tested on: UACC-62
K562 = tested on: K562

SMILES | GI50 (RXF 393) | GI50 (NCI-H23) | GI50 (NCI-H460) | GI50 (HT-29) | GI50 (OVCAR-4) | GI50 (DMS-273) | GI50 (ACHN) | GI50 (M14) | GI50 (SK-MEL-28) | GI50 (OVCAR-8) | GI50 (SNB-75) | GI50 (SF-539) | GI50 (SF-295) | GI50 (DMS-114) | GI50 (HOP-92) | GI50 (CCRF-CEM) | GI50 (SK-MEL-5) | GI50 (UACC-62) | GI50 (K562)
CCOC(=O)N1C/C(=C\c2ccc(N(C)C)cc2)C(=O)/C(=C/c2ccc(N(C)C)cc2)C1 | > 100 µM (inactive) | > 100 µM (inactive) | > 100 µM (inactive) | > 100 µM (inactive) | > 100 µM (inactive) | > 100 µM (inactive) | > 100 µM (inactive) | > 100 µM (inactive) | > 100 µM (inactive) | > 100 µM (inactive) | > 100 µM (inactive) | > 100 µM (inactive) | > 100 µM (inactive) | > 100 µM (inactive) | > 100 µM (inactive) | > 100 µM (inactive) | > 100 µM (inactive) | > 100 µM (inactive) | > 100 µM (inactive)
CN(C)c1ccc(/C=C(\NC(=O)c2ccccc2)c2nc3ccc4c(c3[nH]2)C(=O)c2ccccc2C4=O)cc1 | 18.9 µM (inactive) | 18.1 µM (inactive) | 29.1 µM (inactive) | 69.3 µM (inactive) | 47.2 µM (inactive) | 27.2 µM (inactive) |  | 53.8 µM (inactive) | 27.5 µM (inactive) | 37.4 µM (inactive) | 11 µM (inactive) | 36.5 µM (inactive) | 46.6 µM (inactive) | 21.7 µM (inactive) | 12.8 µM (inactive) | 0.966 µM (active) | 34.3 µM (inactive) | 35.8 µM (inactive) | 26.9 µM (inactive)
CCOC(=O)C(C)(C)Oc1ccc2c(=O)cc(-c3ccc(Cl)cc3)oc2c1 | > 100 µM (inactive) | > 100 µM (inactive) | > 100 µM (inactive) | > 100 µM (inactive) | > 100 µM (inactive) | > 100 µM (inactive) | > 100 µM (inactive) | > 100 µM (inactive) | > 100 µM (inactive) | > 100 µM (inactive) | 38.4 µM (inactive) | > 100 µM (inactive) | > 100 µM (inactive) | > 100 µM (inactive) |  | > 100 µM (inactive) | > 100 µM (inactive) | > 100 µM (inactive) | > 100 µM (inactive)
COc1ccc(NC(=O)C(C)Oc2ccc(OCC3CCCCC3)cc2)cc1 (stereo not drawn) | > 100 µM (inactive) | 34.5 µM (inactive) | 45.8 µM (inactive) | > 100 µM (inactive) | 94 µM (inactive) | 42.3 µM (inactive) | 44.5 µM (inactive) | 70.3 µM (inactive) | > 100 µM (inactive) | > 100 µM (inactive) | 54 µM (inactive) | > 100 µM (inactive) |  | 46.7 µM (inactive) |  | 71.1 µM (inactive) | 34.1 µM (inactive) | > 100 µM (inactive) | 57.9 µM (inactive)
NC(=S)N/N=C(/CC(=O)c1ccccc1)C(=O)Nc1ccc(Cl)c(Cl)c1 | > 100 µM (inactive) | > 100 µM (inactive) | 46.7 µM (inactive) | > 100 µM (inactive) | 57.3 µM (inactive) | 76.6 µM (inactive) | 75.2 µM (inactive) | > 100 µM (inactive) | > 100 µM (inactive) | 47.6 µM (inactive) | > 100 µM (inactive) | > 100 µM (inactive) | 61.9 µM (inactive) | 71.6 µM (inactive) | 40 µM (inactive) | 28.6 µM (inactive) | 41.7 µM (inactive) | 27.4 µM (inactive) | > 100 µM (inactive)
COc1ccc(OC)c2[nH]c(Sc3c([N+](=O)[O-])ncn3C)nc12 | 25.2 µM (inactive) | 17.5 µM (inactive) | 38.1 µM (inactive) | 28.4 µM (inactive) | 22.9 µM (inactive) | 11.8 µM (inactive) | 27.8 µM (inactive) | 20.3 µM (inactive) | 24.3 µM (inactive) | 17.6 µM (inactive) | 30.8 µM (inactive) | 18 µM (inactive) | 41.8 µM (inactive) | 17.4 µM (inactive) | 16.9 µM (inactive) |  | 17.6 µM (inactive) | 18.5 µM (inactive) | 
CCCCC(C(=O)C(=O)NC1C2CC3CC(C2)CC1C3)C(=O)C(C)C (stereo not drawn) | > 100 µM (inactive) | > 100 µM (inactive) | > 100 µM (inactive) | > 100 µM (inactive) | > 100 µM (inactive) | > 100 µM (inactive) | > 100 µM (inactive) | > 100 µM (inactive) | > 100 µM (inactive) | > 100 µM (inactive) | > 100 µM (inactive) | > 100 µM (inactive) | > 100 µM (inactive) | > 100 µM (inactive) | > 100 µM (inactive) | > 100 µM (inactive) | > 100 µM (inactive) | > 100 µM (inactive) | > 100 µM (inactive)
COC(=O)C(Cc1nc2ccccc2nc1O)C(=O)C(=O)Nc1ccc([N+](=O)[O-])cc1[N+](=O)[O-] (stereo not drawn) | 18.3 µM (inactive) | 18.7 µM (inactive) | 22.1 µM (inactive) | 19.4 µM (inactive) | 20.1 µM (inactive) | 17.6 µM (inactive) | 18.2 µM (inactive) | 17.8 µM (inactive) | 22.6 µM (inactive) | 22.3 µM (inactive) | 16.3 µM (inactive) | 20.6 µM (inactive) | 24.9 µM (inactive) | 16.1 µM (inactive) |  | 13.2 µM (inactive) | 18.3 µM (inactive) | 18.7 µM (inactive) | 30.8 µM (inactive)
c1ccc(CN(Cc2ccccn2)Cn2cccn2)nc1 | 57.5 µM (inactive) | 50.5 µM (inactive) | 41.2 µM (inactive) |  | > 100 µM (inactive) | 35.7 µM (inactive) | 33 µM (inactive) | 25.9 µM (inactive) | 15.7 µM (inactive) | 32.8 µM (inactive) | > 100 µM (inactive) | > 100 µM (inactive) | 62.7 µM (inactive) | 22.1 µM (inactive) | 52.6 µM (inactive) | 29.5 µM (inactive) | 43.9 µM (inactive) | 20.3 µM (inactive) | 36.6 µM (inactive)
O=C(/C=C/c1ccccc1Cl)NC1C=Nc2ccc([N+](=O)[O-])cc2NC1 (stereo not drawn) | 97.7 µM (inactive) |  | 47 µM (inactive) |  | 78.3 µM (inactive) | > 100 µM (inactive) | 39.7 µM (inactive) | > 100 µM (inactive) | > 100 µM (inactive) | 55.8 µM (inactive) | 90.8 µM (inactive) | > 100 µM (inactive) | > 100 µM (inactive) | 48.4 µM (inactive) |  | 12.7 µM (inactive) | > 100 µM (inactive) | > 100 µM (inactive) | 46.1 µM (inactive)
CC1=C(c2cc(C(=O)Nc3cccc(C(F)(F)F)c3)ncn2)Sc2ccccc2N1 |  | > 100 µM (inactive) | > 100 µM (inactive) | > 100 µM (inactive) | > 100 µM (inactive) | > 100 µM (inactive) | > 100 µM (inactive) | > 100 µM (inactive) | > 100 µM (inactive) | > 100 µM (inactive) | 58.9 µM (inactive) | > 100 µM (inactive) | > 100 µM (inactive) | > 100 µM (inactive) | > 100 µM (inactive) | > 100 µM (inactive) | > 100 µM (inactive) | > 100 µM (inactive) | > 100 µM (inactive)
c1ccc(C2=NOC3COc4ccccc4OCC23)cc1 (stereo not drawn) | > 100 µM (inactive) | > 100 µM (inactive) | > 100 µM (inactive) | > 100 µM (inactive) | > 100 µM (inactive) | > 100 µM (inactive) | > 100 µM (inactive) | > 100 µM (inactive) | > 100 µM (inactive) | > 100 µM (inactive) | 54.6 µM (inactive) | > 100 µM (inactive) | > 100 µM (inactive) | > 100 µM (inactive) |  | > 100 µM (inactive) | 61.5 µM (inactive) | > 100 µM (inactive) | 72.6 µM (inactive)
CC(=O)[O-].Cc1ncc(CO)c(/C=N/NC(N)=S)c1[O-].[Zn+2] | > 100 µM (inactive) | > 100 µM (inactive) | > 100 µM (inactive) | > 100 µM (inactive) | > 100 µM (inactive) | > 100 µM (inactive) | > 100 µM (inactive) | > 100 µM (inactive) | > 100 µM (inactive) | > 100 µM (inactive) | > 100 µM (inactive) | > 100 µM (inactive) | > 100 µM (inactive) | > 100 µM (inactive) |  | > 100 µM (inactive) | > 100 µM (inactive) | > 100 µM (inactive) | > 100 µM (inactive)
CCCCCCCOc1ccc(/C=C\c2cc[n+](CCCCCCCC[n+]3ccc(/C=C\c4ccc(OCCCCCCC)cc4)cc3)cc2)cc1 | > 100 µM (inactive) | 28.2 µM (inactive) | 5.51 µM (inactive) | 13.8 µM (inactive) | 21.6 µM (inactive) | 4.3 µM (inactive) | 38.2 µM (inactive) | 17.5 µM (inactive) | 17.6 µM (inactive) | 20.7 µM (inactive) | > 100 µM (inactive) | 65.5 µM (inactive) | 13.3 µM (inactive) | 21.6 µM (inactive) | > 100 µM (inactive) | > 100 µM (inactive) | 14.6 µM (inactive) | 35.3 µM (inactive) | 
Cc1cccc2c1C/C(=C1\CCc3c(C)cccc31)C2=O | > 100 µM (inactive) | > 100 µM (inactive) | > 100 µM (inactive) | > 100 µM (inactive) | 52.6 µM (inactive) | > 100 µM (inactive) | > 100 µM (inactive) | > 100 µM (inactive) | > 100 µM (inactive) | > 100 µM (inactive) | 80.9 µM (inactive) |  | > 100 µM (inactive) | > 100 µM (inactive) |  | > 100 µM (inactive) | > 100 µM (inactive) | > 100 µM (inactive) | > 100 µM (inactive)
